Measurements taken from patent publication US7745493B2, “Methods of treating tardive dyskinesia and other movement disorders” (priority 1998, dated 2010).

How the values were obtained:
[1] = tested on: person one with long-standing TD; assay: Case Report 2: clinical observation of TD; type: in vivo, human; conditions: Case 2; acamprosate 666 mg three times daily added to memantine; magnesium oxide 250 mg three times a day added to acamprosate
Excerpt: person one had long-standing TD following decades of treatment with the neuroleptic drug perphenazine. Their involuntary movements comprised bilateral chorea of the upper extremities, plus writhing of the tongue and tongue-biting. Both of the latter movements led to a very sore tongue. In addition, the patient experienced impairment of their short-term memory, which was attributed primarily to cerebrovascular disease.
They also continued to have a sore tongue. […] In addition to memantine, the patient regularly took antiepileptic drugs (gabapentin and lamotrigine), antiplatelet agents (aspirin and ticlopidine), as well as medications for hypertension, glaucoma and gastrointestinal symptoms (isosorbide mononitrate, metoprolol, timolol eye drops and olsalazine).
The patient was placed on a treatment regime that included administration of 666 mg of acamprosate, three times daily. In this case, acamprosate was added to the patient's regimen, which continued to include memantine. […] Despite past evidence from formal testing that the patient had impaired short-term memory, they performed normally on a two-sentence memory task, which involved testing the patient's recall ability using two sentences containing 13 separate details. On the two-sentence memory task, within three attempts the patient was able to recall 9 details and, using a multiple choice format, was able to recall a total of 11 details. Recall of 9 details on the third attempt would be normal for a middle-aged adult, let alone one […].
After a full year on memantine and acamprosate, the memantine was discontinued, with little change in the patient's symptoms.
Magnesium oxide, 250 mg three times a day, was added, each dose being taken together with the acamprosate. […] The effect was definite: movements worsened when magnesium oxide was stopped and improved when it was restarted. After a month on magnesium, the dosage of acamprosate was increased to 666 mg four times a day, with 250 mg of magnesium oxide given together with each dose. […] The only residual sign of TD was a mild degree of involuntary movement of the hands.

[2] = tested on: patients with Meige syndrome; conditions: cited from earlier work
[3] = tested on: person two with long-standing TD; assay: Case Report 1: clinical observation of TD with blepharospasm; type: in vivo, human; conditions: Case 1; for effect on involuntary movements of TD: clinical observation, acamprosate 333 mg four times a day
Description: Palliative treatment with alprazolam (an anxiolytic and GABA agonist via modulation; dosage 0.25 mg four times a day) and trihexyphenidyl (an anticholinergic antiparkinson drug that inhibits dopamine re-uptake at synapses; dosage 2 mg twice a day) was prescribed by another physician.
Initially, their other medications were maintained unchanged.
Nimodipine was discontinued, and the patient was begun on memantine at a dosage of 10 mg twice a day.
For the following 10 days they added 250 mg three times a day of chelated magnesium.

[4] = tested on: person two with Parkinson's disease and peak-dose dyskinesia; assay: Case Report 3: peak-dose dyskinesia of treated Parkinson's disease; type: in vivo, human; conditions: Case 3; for effect on peak-dose dyskinesia: added to antiparkinson regime, memantine 10 mg three times a day, acamprosate 666 mg three times, then 333 mg four times a day, baclofen 30 and 60 mg daily, magnesium 300 mg three times a day
Description: The patient's Parkinson's disease was treated using levodopa/carbidopa and bromocriptine.
Prior to beginning treatment with acamprosate, the patient was on an antiparkinson treatment regime that consisted of 1 mg of pergolide three times a day, 5 mg of selegiline twice a day, and a combination of levodopa/carbidopa consisting of 550-600 mg of levodopa and 125-150 mg of carbidopa administered in divided doses.
The patient began acamprosate as an addition to the antiparkinson regime described above. Initially, the patient received 666 mg of acamprosate administered three times a day. Two weeks later the regime was adjusted such that the patient received 333 mg of acamprosate four times a day, taking one 333 mg pill with each daytime dose of 100 mg levodopa and 25 mg carbidopa. The patient's bedtime does of controlled-release levodopa-carbidopa (200 mg of levodopa and 50 mg of carbidopa) was continued, but were given without acamprosate. […] To confirm that the patient's improvement was due to the administration of acamprosate, the patient was taken off the acamprosate. […] During the period off acamprosate, an attempt was made to replace acamprosate with baclofen (a GABA-receptor agonist) at a total daily dose of 30 mg, and then with baclofen at a total daily dose of 60 mg.
Several months later, magnesium (300 mg elemental magnesium, as a mixed chelate), was added to the regimen. It was taken three times a day, together with a one of the patient's regular doses of levodopa/carbidopa. […] To establish whether the improvement was due to magnesium, the magnesium was stopped after several weeks.

[5] = tested on: patients with tic-related symptoms; conditions: in vivo; cited from earlier work

| Compound | effect on involuntary movements of TD ([3]; memantine 10 mg twice a day) | effect on peak-dose dyskinesia [4] | also measured |
| --- | --- | --- | --- |
| [O]=[Mg] [Magnesium oxide] |  |  | effect on involuntary movements of TD [1]: improved further |
| COc1cc2c(cc1OC)C1CC(=O)C(CC(C)C)CN1CC2 (stereo not shown) [Tetrabenazine] |  |  | patients with involuntary movements alleviated [2]: 4 of 6; undesirable side effects [2]: drowsiness, drooling and Parkinsonism |
| OC(CCN1CCCCC1)(c1ccccc1)C1CCCCC1 (stereo not shown) [Trihexyphenidyl, trihexyphenidyl] | discontinued without a change in their involuntary movements |  |  |
| Cc1nnc2n1-c1ccc(Cl)cc1C(c1ccccc1)=NC2 [alprazolam] | no detectable effect |  |  |
| NCC(CC(=O)O)c1ccc(Cl)cc1 (stereo not shown) [baclofen] |  | no beneficial effect | adverse effects ([4]; total daily dose 30 mg, then 60 mg): sedation and nausea |
| CC(C[N+](C)(C)C)OC(N)=O (stereo not shown) [bethanecol] |  | did not appear to affect |  |
| O=C1CC2(CCCC2)CC(=O)N1CCCCN1CCN(c2ncccn2)CC1 [buspirone] | either produced little benefit or were not tolerated |  |  |
| NC(=O)N1c2ccccc2C=Cc2ccccc21 [carbamazepine] |  | did not appear to affect |  |
| Clc1cccc(Cl)c1N=C1NCCN1 [clonidine] |  |  | patients showing clinically significant improvement of tic-related symptoms [5]: < 50%; side effects that limit use [5]: hypotension or sedation |
| COCCOC(=O)C1=C(C)NC(C)=C(C(=O)OC(C)C)C1c1cccc([N+](=O)[O-])c1 (stereo not shown) [nimodipine] |  |  | reduction of involuntary movements ([3]; 30 mg four times a day): about 50%; time able to read text or music at a time ([3]; 30 mg four times a day): no more than 30 minutes; adverse effects ([3]; nimodipine 30 mg four times a day, memantine 10 mg twice a day): dizziness, lightheadedness, and palpitations |
| CN[C@H]1CC[C@@H](c2ccc(Cl)c(Cl)c2)c2ccccc21 [sertraline] | either produced little benefit or were not tolerated | did not appear to affect |  |
| medroxyprogesterone |  | did not appear to affect |  |
| vitamin E | either produced little benefit or were not tolerated |  |  |
